Assay results taken from patent publication US20210338699A1 (priority 2018, published 2021).
Where two headings read alike, the source gives them in different places.

Assays:
WT and ROCK1^−/− mice = test: Serial doxorubicin administration, DOX-induced CTX in WT and ROCK1−/− mice
Protocol: FIG. 1A. Schematic diagram representing serial doxorubicin administration protocol. WT and ROCK1^−/− mice received three serial injections weekly of normal saline (NS) or doxorubicin (DOX) (8 mg/kg). […]
The generation of ROCK1 deficient mice have been previously reported. […] To assess if a deficiency of ROCK1 protects the mice from DOX induced CTX, control (WT) and ROCK1^−/− mice were injected with 8 mg/kg of DOX or normal saline (NS) once weekly for 3 consecutive weeks, for a cumulative dose of 24 mg/kg (FIG. 1A). This treatment is based on the previously described approach, which causes progressive cardiac dysfunction within three weeks after the initial injection, a scenario that mimics early-onset of DOX-induced CTX in humans.
To elucidate the role of ROCK1 in DOX induced CTX, ROCK1^−/− mice were treated with DOX in parallel to the WT mice.
During autophagy, the cytosolic form of microtubule-associated protein 1 light chain 3 (LC3-I) is conjugated to phosphatidylethanolamine to form LC3-II, which is recruited to autophagosomal membranes.

[1] = tested on: MHC-Cre/ROCK1^fl/fl and ROCK1^fl/fl mice; test: DOX-induced CTX in cardiomyocyte-specific ROCK1 knockout mice; format: in vivo; settings: three weekly injections 8 mg/kg, day 21
Protocol: FIG. 7A. Graph illustrating the percent fractional shortening (FS) of cardiomyocyte-specific ROCK1 knockout mice (MHC-Cre/ROCKfl/fl) and ROCK1fl/fl mice (8-9 weeks old) after receiving three serial injections weekly of NS or DOX (8 mg/kg). Cardiac function was measured by echocardiography analysis on day 21 after the initial injection.
FIG. 7B. Graph illustrating total TUNEL positive nuclei per 10^5 total nuclei in ventricular myocardium from MHC-Cre/ROCK^fl/fl and ROCK1^fl/fl mice hearts on day 21. N=4-6 in each group.
FIG. 7C. Representative heart sections stained with picrosirius red/Fast green illustrating the collagen deposition in ventricular myocardium of MHC-Cre/ROCK^fl/fl and ROCK1^fl/fl mice hearts on day 21. N=4-6 in each group.
To determine if ROCK1 in cardiomyocytes has a role in DOX-induced CTX, cardiomyocyte-specific ROCK1 knockout mice were generated. In myosin heavy chain (MHC)-Cre/ROCK1^fl/fl mice, the ROCK1 protein is truncated only in cardiomyocytes from residue 137 to the end of the protein (FIGS. 6A, 6B). Similar to ROCK1^−/− mice in which the ROCK1 protein is also truncated from residue 180 to the end of the protein in all cells, the conditional targeting approach results in the removal of a large portion of the kinase domain and amino acids from the coiled-coil and the PH domains. […]

AML mice = tested on: AML mice
Excerpt: Three different sources of donor cells will be utilized: 1) WT LSK cells; 2) Tet2^−/−FLT3^ITD/+ LSK cells; and 3) Dnmt3a^−/−FLT3^ITD/+ LSK cells. Lethally irradiated CD45.1^+ (BoyJ) recipient mice of the above described 5 genotypes will be transplanted with CD45.2^+WT, Tet2^−/−FLT3^ITD/+ or Dnmt3a^−/−FLT3^TID/+ leukemic cells along with CD45.1^+ normal cells in 1:1 ratio pooled from 2-3 mice of either gender at 4 months of age. 2 months posttransplant, the development of AML in these mice will be assessed by analysing peripheral blood. Mice will be randomly assigned into two groups: 1) vehicle; and 2) intraperitoneal injection (IP) of DOX 8 mg/kg/week for 3 weeks. This treatment is based on the previously described approach. […] Alternatively, mice will be subjected to 5 IP injections of DOX (5 mg/Kg) with one-week intervals for a cumulative dose of 25 mg/kg over a period of 5 weeks. […] Relapse of these mice will be monitored closely and DOX will be re-administered and then be compared for CTX.

[2] = tested on: cancer patients including AML patients; settings: within 9 years of DOX treatment; cited from earlier work
cells expressing BCR-ABL = test: Proliferation by [3H] thymidine incorporation, BCR-ABL cells; format: cell-based; settings: absence of growth factors, 48 hours
Protocol: (§1) FIG. 9A. […] After 48 hours, proliferation was evaluated by [^3H] thymidine incorporation.
FIG. 12A. Graph illustrating the effect of ROCK inhibitor (H-1152) alone or in combination with imatinib on proliferation of myeloid cells expressing BCR-ABL.
(§2) In order to illustrate the imatinib resistance, very high dose of imatinib were used in these cells.
Referring now to FIG. 11, primary CML patient derived cells were examined and a human cell line bearing BCR-ABL (K562) was used as a positive control.

[3] = tested on: cells expressing FLT3-ITD (FLT3N51); test: Proliferation by [3H] thymidine incorporation, FLT3-ITD cells; format: cell-based; settings: absence of growth factors, 48 hours
Protocol: as §1, §2

leukemic mice = test: Survival of leukemic mice treated with ROCK inhibitors; format: in vivo
Excerpt: Increased ROCK activity is associated with cardiovascular disease (CVD).

ROCK = settings: cited from earlier work
[4] = tested on: blood vessel permeability; settings: mouse, in vivo; cited from earlier work
[5] = tested on: fibroblasts from WT and ROCK1^−/− mice; test: Ponatinib treatment of WT and ROCK1−/− fibroblasts; format: cell-based

COc1cccc2c1C(=O)c1c(O)c3c(c(O)c1C2=O)C[C@@](O)(C(=O)CO)C[C@@H]3O[C@H]1C[C@H](N)[C@H](O)[C@H](C)O1 [DOX, doxorubicin]
mortality rate (WT and ROCK1^−/− mice; ROCK1 deficient mice, at 3 months): 55%
mortality rate (WT and ROCK1^−/− mice; ROCK1 deficient mice, at 6 months): 70%
mortality rate (WT and ROCK1^−/− mice; ROCK1−/− mice, over 6 weeks after initial DOX injection): about 10%
death of all treated mice (WT and ROCK1^−/− mice; WT mice): died within 3 months
mortality rate (WT and ROCK1^−/− mice; WT mice, over 6 weeks after initial DOX injection): about 70%
Bax levels (WT and ROCK1^−/− mice; mouse, in vivo): increased
autophagosomes by transmission electron microscopy (WT and ROCK1^−/− mice; mouse, in vivo): more accumulation of autophagosomes
body weight (WT and ROCK1^−/− mice; mouse, in vivo): significant impact
cardiac fibrosis (WT and ROCK1^−/− mice; mouse, in vivo): increased
cardiac function (WT and ROCK1^−/− mice; mouse, in vivo): preserved
cardiac function (percent fractional shortening) (WT and ROCK1^−/− mice; mouse, in vivo): impaired
cardiomyocyte size (WT and ROCK1^−/− mice; mouse, in vivo): significant impact
characteristics of DOX-induced CTX (TUNEL, Bax translocation, fibrosis) (WT and ROCK1^−/− mice; mouse, in vivo): effectively blocked
heart weight (WT and ROCK1^−/− mice; mouse, in vivo): significant impact
mitochondrial translocation of Bax (WT and ROCK1^−/− mice; mouse, in vivo): increased
number of TUNEL positive cardiac cells (WT and ROCK1^−/− mice; mouse, in vivo): significantly increased
DOX-induced LV dilation (WT and ROCK1^−/− mice; mouse, in vivo, 8 mg/kg): blocked
LV contractile function (LV fractional shortening, FS) (WT and ROCK1^−/− mice; mouse, in vivo, 8 mg/kg): reduced
left ventricular (LV) dilation (LVESD, LVEDD) by echocardiogram (WT and ROCK1^−/− mice; mouse, in vivo, 8 mg/kg): reproducible and progressive left ventricular (LV) dilation
cardiotoxic events (cardiac dysfunction, TUNEL positivity, cardiac fibrosis) ([1]; MHC-Cre/ROCK1fl/fl mice): significantly reduced
cardiotoxic events (cardiac dysfunction, TUNEL positivity, cardiac fibrosis) ([1]; ROCK1fl/fl hearts): induced cardiac dysfunction, increased TUNEL positivity and cardiac fibrosis
AML response (AML mice; IP 8 mg/kg/week for 3 weeks): complete remission of AML
CTX (AML mice; mouse, in vivo, ip, 8 mg/kg): severe CTX including dysfunction
patients with clinical or sub-clinical manifestation of heart failure [2]: 6-18%

O=S(=O)(c1cccc2cnccc12)N1CCCNCC1 [Fasudil]
constitutive growth (thymidine incorporation) (cells expressing BCR-ABL): similarly repress the growth
constitutive growth (thymidine incorporation) [3]: similarly repress the growth
survival of leukemic mice (leukemic mice; compared to vehicle treated): significant enhancement in survival
anti-leukemic activity (leukemic mice; in vivo models of AML): potent anti-leukemic activity

[N]=O [NO, nitric oxide]
ROCK activity (ROCK; patients with CVD, exogenous NO): inhibits ROCK activity

C[C@@H](N)[C@H]1CC[C@H](C(=O)Nc2ccncc2)CC1 [Y27632]
constitutive growth (thymidine incorporation) (cells expressing BCR-ABL): similarly repress the growth
constitutive growth (thymidine incorporation) [3]: similarly repress the growth

CC(C)c1c(C(=O)Nc2ccccc2)c(-c2ccccc2)c(-c2ccc(F)cc2)n1CC[C@@H](O)C[C@@H](O)CC(=O)O [atorvastatin]
ROCK activity (ROCK; patients with atherosclerosis): inhibits ROCK activity

Cc1nc(Nc2ncc(C(=O)Nc3c(C)cccc3Cl)s2)cc(N2CCN(CCO)CC2)n1 [dasatinib]
amount of Evans Blue in the small intestine [4]: significantly increases

Cc1ccc(C(=O)Nc2ccc(CN3CCN(C)CC3)c(C(F)(F)F)c2)cc1C#Cc1cnc2cccnn12 [ponatinib]
cell survival ([5]; ROCK1−/− cells): enhanced survival
cleaved caspase 3/8 levels ([5]; ROCK1−/− cells): profound decrease
ponatinib induced cell shape changes ([5]; ROCK1−/− fibroblasts): not the case
cleaved caspase 8/3 levels ([5]; WT fibroblasts): profound increase
ponatinib induced cell shape changes ([5]; WT fibroblasts, increasing doses): significant changes
